pIC50: −log10 of the molar value.
Tests used:
telomerase = target: T1, telomerase (Homo sapiens, UniProt O14746); test: Telomerase activity by TRAP assay in treated HCT116 cells; type: cell-based; settings: HCT116 cells treated with 1 and 10 μM every 3 days for 12 weeks
T1 construct: endogenous in cells; host or cells: HCT116 human colon cancer cells (lysate)
Procedure: Telomerase activity was measured by the TRAP assay (Telomeric Repeat Amplification Protocol as described in Shay J. W. and Bacchetti S., “A survey of telomerase activity in human cancer,” European Journal of Cancer 1997; 33:787-91.). Briefly, HCT116 cells were treated with 1 or 10 μM 6-thio-dG for 1-12 weeks. 1×10^5 cells were collected and lysed with ice-cold NP-40 lysis buffer (10 mM Tris-HCl pH 8.0, 1.0 mM MgCl2, 1 mM EDTA, 1% NP-40, 0.25 mM sodium deoxycholate, 10% glycerol, 150 mM NaCl, 5 mM β-mercaptoethanol) for 30 min. One microliter cellular lysate for 2500 cells was used for each reaction. Hela cells were used as a positive control and lysis buffer was used as a negative control. Samples were prepared and then the telomerase extension products were amplified using PCR (95° C. for 5 min to inactivate telomerase, then 95° C. for 30 sec, 52° C. for 30 sec, 72° C. for 30 sec; 24 cycles). Samples were run on a 10% non-denaturating acrylamide gel and visualized using a Typhoon PhosphorImager scanner system (Molecular Dynamics, GE Healthcare, Piscataway, NJ) that is capable of reading Cy5 fluorescence.

HCC515 = test: GI 50 determination, HCC515; type: cell-based; settings: Homo sapiens
Procedure: (§1) Cells of each type listed in Table 2 were seeded in chamber slides.

HCC827 = test: GI 50 determination, HCC827; type: cell-based; settings: Homo sapiens
Procedure: as §1

HCT116 cells = settings: 3 μM twice during one week
Procedure: Cancer HCT116 and normal BJ fibroblast cells were treated with 6-thio-dG (3 μM) and 6-thio-G (3 μM) twice during one week. Following one week of the treatment, cell morphology was monitored, and then the cells were collected and counted.

[1] = system: paclitaxel/carboplatin resistant H1299; test: 6-thio-dG on paclitaxel/carboplatin resistant H1299, cell count; type: cell-based, human; settings: 1, 3, 10 μM every three days for one week
Procedure: A cell count was performed to measure cell growth/death.

[2] = system: A549 non-small cell lung cancer cell line; test: CellTitreGlo survival, 7 days, A549; type: cell-based; settings: Homo sapiens, 168 h
Procedure: (§2) Four different cell lines were treated with nine different doses of 6-thio-dG for 7 days. HCT116 colon cancer cell line (FIG. 9A), HCEC1 normal colonic cell line (FIG. 9C), A549 non-small cell lung cancer cell line (FIG. 9B), and BJ normal fibroblast cell line (FIG. 9D) were each treated. Survival fraction was measured by CellTitreGlo luminescent cell viability assay (Promega).

Toxicity testing in rats = settings: for mortality: rats
Procedure: Six rats were treated with 15 mg of 6-thio-dG/kg of body weight every two days. […] Another 5 rats were treated with 50 mg of 6-thio-dG/kg of body weight every other day.

HCC15 = test: GI 50 determination, HCC15; type: cell-based; settings: Homo sapiens
Procedure: as §1

HCT116 sub clones = test: 6-thio-dG on HCT116 sub clone cell lines, cell count; type: cell-based, human; settings: for sensitivity (cell count): 3 μM for 4 weeks
Procedure: In a separate experiment, 31 sub clone cell lines were derived from HCT116 cells that had no prior treatment with 6-thio-dG. […] At the end of one week, a cell count was performed of treated cells and cell percentage calculated relative to control cell count (FIG. 22). […] Four of the sub clone cell lines were further studied for resistance to 6-thio-dG. […] HCT116 Control group represent the main population treated with DMSO:water for 1-4 weeks. At the end of 4 weeks a cell count was performed to quantify cell growth. […] (FIG. 23)

[3] = system: HCEC1 normal colonic cell line; test: CellTitreGlo survival, 7 days, HCEC1; type: cell-based; settings: Homo sapiens, 168 h
Procedure: as §2

BJ = test: GI 50 determination, BJ; type: cell-based; settings: Homo sapiens; BJ normal cell line
Procedure: as §1

HCC2429 = test: GI 50 determination, HCC2429; type: cell-based; settings: Homo sapiens
Procedure: as §1

H1993 = test: NSCLC panel sensitivity to 6-thio-dG, H1993; type: cell-based, human
Procedure: (§3) A panel of NSCLC cell lines was tested for sensitivity to 6-thio-dG by performing a cell count after 1 week treatment. Briefly, cells were treated with 3 μM 6-thio-dG every three days for 1 week. Viable cells were counted at the end of treatment. Each 6-thiodG treated cell line was normalized to its DMSO treated control.
Two isogenic pairs of NSCLC cell lines were studied for sensitization to 6-thio-dG treatment.

H1993 cells = test: Sensitization by 5-azacytidine pretreatment, H1993; type: cell-based, human; settings: Homo sapiens, NCI-H1993, 500 nM 5-azacytidine one week, then 6-thio-dG one week, read-out: IC50 of 6-thio-dG after 5-azacytidine pretreatment
Procedure: All three resistant cell lines were pre-treated with 500 nM of the demethylating agent 5-azacytidine for one week. Following the 5-azacytidine pretreatment, each resistant cell line was treated with 9 different concentrations (0.01 to 1000 micromolar) of 6-thio-dG for one week. Cells were then evaluation for growth/death.

H2009 = test: GI 50 determination, H2009; type: cell-based; settings: Homo sapiens, NCI-H2009
Procedure: as §1

H1693 = test: 6-thio-dG on H1693 parental and paclitaxel/carboplatin resistant lines; type: cell-based, human; settings: 1, 3, 10 μM
Procedure: The resulting resistant lines and their parents were tested for the effect of 6-thio-dG at 1, 3, and 10 μM concentrations.

BJ fibroblast cells = test: Cell morphology and cell count after one week, BJ fibroblasts; type: cell-based, human; settings: normal BJ fibroblasts; 3 μM twice during one week
H2086 = test: NSCLC panel sensitivity to 6-thio-dG, H2086; type: cell-based, human; settings: 3 μM every three days for 1 week, normalized to DMSO control
Procedure: as §3, with “control. The results of the cell count are depicted in FIG. 12, with the various cell lines arranged in descending resistance to 6-thio-dG from left to right. […] The IC50 values for the whole panel of tested cells are depicted in FIG. 13. The IC50 values for tested cells are depicted as a column scatter graph in FIG. 14.” for “control.”

A549 = test: GI 50 determination, A549; type: cell-based; settings: Homo sapiens
Procedure: as §1

T1 sequence (O14746 whole entry): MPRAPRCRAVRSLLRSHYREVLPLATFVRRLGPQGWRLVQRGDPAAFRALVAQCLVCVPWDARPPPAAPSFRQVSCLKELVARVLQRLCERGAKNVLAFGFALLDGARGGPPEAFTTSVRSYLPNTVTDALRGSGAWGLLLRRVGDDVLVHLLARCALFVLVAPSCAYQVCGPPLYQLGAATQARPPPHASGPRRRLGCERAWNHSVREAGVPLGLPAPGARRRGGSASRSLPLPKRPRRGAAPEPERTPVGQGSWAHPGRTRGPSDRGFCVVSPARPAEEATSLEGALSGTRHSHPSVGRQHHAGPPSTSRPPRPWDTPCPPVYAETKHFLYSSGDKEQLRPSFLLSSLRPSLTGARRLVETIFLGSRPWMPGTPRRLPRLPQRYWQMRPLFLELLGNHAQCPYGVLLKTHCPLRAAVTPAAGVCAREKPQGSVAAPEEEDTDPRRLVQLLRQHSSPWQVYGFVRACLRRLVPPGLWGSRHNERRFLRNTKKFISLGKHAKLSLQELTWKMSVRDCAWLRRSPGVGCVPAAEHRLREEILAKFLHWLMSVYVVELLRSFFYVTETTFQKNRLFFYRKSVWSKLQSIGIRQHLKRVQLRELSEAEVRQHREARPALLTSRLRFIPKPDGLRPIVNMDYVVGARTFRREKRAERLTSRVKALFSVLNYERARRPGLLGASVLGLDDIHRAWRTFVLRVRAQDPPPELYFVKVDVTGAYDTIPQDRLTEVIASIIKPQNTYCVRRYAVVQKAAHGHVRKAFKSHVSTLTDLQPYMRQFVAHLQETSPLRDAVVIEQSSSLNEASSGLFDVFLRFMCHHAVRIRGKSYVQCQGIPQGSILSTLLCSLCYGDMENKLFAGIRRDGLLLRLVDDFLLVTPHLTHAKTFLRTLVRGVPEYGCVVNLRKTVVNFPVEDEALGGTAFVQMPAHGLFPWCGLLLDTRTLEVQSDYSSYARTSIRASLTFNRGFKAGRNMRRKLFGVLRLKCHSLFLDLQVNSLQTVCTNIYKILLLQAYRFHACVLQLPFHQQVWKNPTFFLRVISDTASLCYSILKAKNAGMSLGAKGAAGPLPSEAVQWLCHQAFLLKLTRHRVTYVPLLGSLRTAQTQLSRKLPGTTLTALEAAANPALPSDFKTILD
T1 sequence (O60832 whole entry partner): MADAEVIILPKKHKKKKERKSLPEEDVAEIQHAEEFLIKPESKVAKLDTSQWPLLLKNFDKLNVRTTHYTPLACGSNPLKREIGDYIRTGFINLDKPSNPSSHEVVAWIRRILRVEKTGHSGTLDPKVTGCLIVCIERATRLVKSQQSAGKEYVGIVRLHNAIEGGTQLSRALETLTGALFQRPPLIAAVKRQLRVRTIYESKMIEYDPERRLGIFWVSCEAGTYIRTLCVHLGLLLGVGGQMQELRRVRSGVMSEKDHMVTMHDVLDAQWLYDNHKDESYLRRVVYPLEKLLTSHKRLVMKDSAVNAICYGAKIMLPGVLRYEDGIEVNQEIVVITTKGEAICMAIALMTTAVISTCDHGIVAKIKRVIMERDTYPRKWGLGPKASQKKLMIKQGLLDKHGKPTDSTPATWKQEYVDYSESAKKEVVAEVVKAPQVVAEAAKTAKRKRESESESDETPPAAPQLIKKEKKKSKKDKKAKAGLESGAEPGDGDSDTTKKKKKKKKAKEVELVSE
T1 sequence (Q9NY12 whole entry partner): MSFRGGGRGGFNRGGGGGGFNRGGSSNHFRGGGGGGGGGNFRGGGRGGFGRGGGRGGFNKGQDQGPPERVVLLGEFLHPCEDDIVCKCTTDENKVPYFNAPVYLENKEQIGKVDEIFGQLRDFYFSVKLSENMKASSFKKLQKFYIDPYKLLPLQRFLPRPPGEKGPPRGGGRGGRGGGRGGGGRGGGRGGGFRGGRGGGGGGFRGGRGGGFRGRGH
T1 sequence (Q9NX24 whole entry partner): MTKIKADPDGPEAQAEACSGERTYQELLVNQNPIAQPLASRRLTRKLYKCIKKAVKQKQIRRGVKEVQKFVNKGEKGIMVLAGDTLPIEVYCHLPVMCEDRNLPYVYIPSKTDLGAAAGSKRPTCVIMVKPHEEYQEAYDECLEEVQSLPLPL
T1 sequence (Q9NPE3 whole entry partner): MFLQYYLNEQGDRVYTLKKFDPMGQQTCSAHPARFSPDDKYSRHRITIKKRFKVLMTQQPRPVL
T1 sequence (Q9BUR4 whole entry partner): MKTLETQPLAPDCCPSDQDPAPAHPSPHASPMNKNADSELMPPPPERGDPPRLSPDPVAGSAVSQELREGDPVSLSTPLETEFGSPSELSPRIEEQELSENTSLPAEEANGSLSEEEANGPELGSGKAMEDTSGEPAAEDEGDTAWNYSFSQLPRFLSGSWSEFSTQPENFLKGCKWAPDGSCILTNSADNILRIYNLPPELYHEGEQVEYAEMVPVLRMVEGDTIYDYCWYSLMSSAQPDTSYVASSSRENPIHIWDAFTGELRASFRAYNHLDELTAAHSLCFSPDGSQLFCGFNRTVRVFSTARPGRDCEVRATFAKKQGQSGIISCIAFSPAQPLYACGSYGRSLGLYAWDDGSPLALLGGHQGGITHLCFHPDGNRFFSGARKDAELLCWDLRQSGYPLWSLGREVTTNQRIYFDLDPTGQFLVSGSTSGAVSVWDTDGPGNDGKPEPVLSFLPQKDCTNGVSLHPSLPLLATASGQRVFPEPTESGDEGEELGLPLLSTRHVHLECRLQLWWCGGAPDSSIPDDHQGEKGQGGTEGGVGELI

Nc1nc2c(ncn2[C@H]2C[C@H](O)[C@@H](CO)O2)c(=S)[nH]1 [6-thio-dG, 6-thio-2′-deoxyguanosine]
inhibition of telomerase activity (TRAP) (telomerase): no inhibition of telomerase activity was observed
GI50 (HCC515): 2400 nM
GI50 (HCC827): 800 nM
cell death / cell count (HCT116 cells): death of the vast majority of HCT116 cells
sensitivity (cell count) [1]: sensitive to all three concentrations
pIC50 [2]: 5.62
signs of impaired function in surviving animals (Toxicity testing in rats; rat, in vivo, 15 mg/kg): no signs of impaired function
mortality (Toxicity testing in rats; 15 mg/kg every two days, six rats): One rat died after 6 injections
mortality (Toxicity testing in rats; 50 mg/kg every other day, 5 rats): All rats died after 12 days
GI50 (HCC15): 800 nM
sensitivity (cell count) (HCT116 sub clones; HCT116 clone #5): remained sensitive for the duration of the experiment
sensitivity (cell count relative to control) (HCT116 sub clones; HCT116 clone #8, 3 μM every three days for one week): became intrinsically resistant to 6-thio-dG treatment
sensitivity (cell count) (HCT116 sub clones; HCT116 clone #8): maintained resistance for the duration of the treatment
sensitivity (cell count) (HCT116 sub clones; HCT116 clone #15): remained sensitive for the duration of the experiment
sensitivity (cell count) (HCT116 sub clones; HCT116 sub clone #31): acquired resistance and by week 4 showed cell growth indistinguishable from controls
pIC50 [3]: < 4.00
GI50 (BJ): > 100000 nM
GI50 (HCC2429): 600 nM
survival rate (H1993; H1993, 3 μM every three days for 1 week, normalized to DMSO control): greater than 50%
pIC50 (H1993; Homo sapiens, NCI-H1993): < 4.00
pIC50 (H1993 cells): ~5.39
GI50 (H2009): 2600 nM
sensitivity (H1693): resistant to 6-thio-dG
morphology and cell counts (BJ fibroblast cells): only slightly affected
survival rate (H2086): greater than 50%
GI50 (A549): 2100 nM

From US12070472B2, “Treatment of drug resistant proliferative diseases with telomerase mediated telomere altering compounds” (The Board of Regents of the University of Texas System, priority 2016, dated 2024)
